13 compounds from patent publication US5384411A, “Immobilization of PH-sensitive dyes to solid supports” (Hewlett-Packard Company, priority 1991, dated 1995) can be followed below.

Holding throughout (format): physicochemical
Data set [1] is described as follows: pKa and pH dye properties of amino-phenolphthaleins bound to Sepharose 6B. The following applies: dye bound to Sepharose 6B. The method, then: The amino-phenolphthaleins of Examples 2A-2E were reacted with a solid support by the following general procedure:
Place 0.5 g of Sepharose 6B (commercially available from Pharmacia Inc., Piscataway, N.J. as order number 17-0480-01) into deionized water for 30-45 min. to swell. Collect the white gel. In reaction beaker, place 0.3-0.5 g of an appropriate amino-phthalein into 3 ml dioxane and 20 ml of carbonate buffer (pH 10.5). Add the gel and let sit at 35° for 20 hrs. Collect the gel on a glass frit and wash with water, ethanol, acetone and high and low pH buffers. Dialyze the gel against deionized water for 2 days.

A short description of data set [2]: pKa and color change with pH of carboxy-phenolphthaleins bound to Sepharose 4B. The settings on record: dye bound to Sepharose 4B. The method, then:
Place 0.5 g of Sepharose 4B (commercially available from Pharmacia Inc., Piscataway, N.J. as order number 17-0470-01) in 0.5M NaCl for 1 hour and then collect and set aside. Place the appropriate carboxy-phenolphthalein (1.3 mmol) in about 1 ml dimethylformamide and cool to 0° C. in a ice-ethanol bath. […] Leave the reaction at this cold temperature for 15-20 minutes. Then add the Sepharose 4B gel to reaction along with a scoop of benzyltributyl ammonium bromide and 30 ml of borate buffer (pH 9). Place the reaction flask on a shaker overnight at room temperature. Collect the support on a frit and wash with volumes of water, ethanol, acetone and buffered water. Finally, dialyze the support against water for 1-2 days.

Data set [3] can be described thus: pKa of carboxy-sulfonephthaleins bound to aminoethyl cellulose. The settings on record: dye bound to aminoethyl cellulose. The method, then: The carboxy-sulfonephthaleins of Examples 8A-8C were reacted with a solid support by the following general procedure:
Place 0.5 g aminoethyl cellulose (commercially available from Serva Biochemicals, Westbury, N.Y. 11590 as order no. 45015) in 30 ml of deionized water and set aside. Place 0.2 g of an appropriate dye in 25 ml of pyridine-HCl buffer (pH 5.8). Add the filtered cellulose to this reaction along with 83 mg of N-ethyl-N'-(3-dimethylaminopropyl)carbodimidehydrochloride (EDC). Place the reaction on a shaker overnight at room temperature. Collect the support and wash with large volumes of water, ethanol, acetone, DMF and pH buffers over the course of 2 days. Collect a final colored support. Also, this same procedure was run using aminopropyl silica beads (Serva #43660) in place of cellulose.
The pKa 's of the carboxy-sulfonephenolphthaleins bound to the solid support (aminoethyl cellulose) was determined and are set forth in Table 4 below: […]

Take `Nc1cccc2c1C(=O)OC2(c1ccc(O)cc1)c1ccc(O)cc1` [Example 2A]: the pKa result in data set [1] is listed as “approximately 10”. Same read-out and setting: then `Cc1cc(C2(c3cc(C)c(O)cc3C)OC(=O)c3c(N)cccc32)c(C)cc1O` [Example 2B], with approximately 12. Turning to `Nc1cccc2c1C(=O)OC2(c1ccc(O)c(Br)c1)c1ccc(O)c(Br)c1` [Example 2C], the “retention of dye properties after coupling” value in data set [1] was “no longer retained their dye properties”. In the case of `Nc1cccc2c1C(=O)OC2(c1ccc(O)c(Cl)c1)c1ccc(O)c(Cl)c1` [Example 2D], in data set [1], the “retention of dye properties after coupling” value is “no longer retained their dye properties”. `O=C(O)c1ccc2c(c1)C(=O)OC2(c1ccc(O)cc1)c1ccc(O)cc1` [Example 4A] returned a pKa in data set [2] of 10.

For `O=C(O)c1ccc2c(c1)C(=O)OC2(c1ccc(O)c2ccccc12)c1ccc(O)c2ccccc12` [Example 4E], the pKa in data set [2] is given as more than 10. Regarding `O=C(O)c1ccc2c(c1)C(=O)OC2(c1cc([N+](=O)[O-])c(O)cc1[N+](=O)[O-])c1cc([N+](=O)[O-])c(O)cc1[N+](=O)[O-]` [Example 4G], the pKa in data set [2] is ~ 4.

Regarding `O=C(O)c1ccc2c(c1)C(=O)OC2(c1cc(Cl)c(O)c([N+](=O)[O-])c1)c1cc(Cl)c(O)c([N+](=O)[O-])c1` [Example 4H], the pKa in data set [2] is listed as ~ 5.5. The same measure, in the same setting: then `O=C(O)c1ccc2c(c1)C(=O)OC2(c1ccc(O)c(O)c1)c1ccc(O)c(O)c1` [Example 4I], with ~ 7. As to `O=C(O)c1ccc2c(c1)C(=O)OC2(c1cc(O)c(O)cc1[N+](=O)[O-])c1cc(O)c(O)cc1[N+](=O)[O-]` [Example 4J], in data set [2], the pKa is given as ~ 6. Take `O=C(O)c1ccc2c(c1)S(=O)(=O)OC2(c1ccc(O)cc1)c1ccc(O)cc1` [Example 8A]: the pKa in data set [3] came out at 7.6.

With `O=C(O)c1ccc2c(c1)S(=O)(=O)OC2(c1ccc(O)c(Cl)c1)c1ccc(O)c(Cl)c1` [Example 8B], the pKa in data set [3] is given as 6.2. In data set [3], `Cc1cc(O)c(C(C)C)cc1C1(c2cc(C(C)C)c(O)cc2C)OS(=O)(=O)c2cc(C(=O)O)ccc21` [Example 8C] registered a pKa of 9.2.

As a reminder, the pKa is the pH at which an ionisable group is half protonated. Low readings indicate a stronger acid or weaker base, high ones a weaker acid or stronger base.
